# Laboratory results taken from the NIST ThermoML archive (doi:10.1021/je300683r).
# Numbers after ± are expanded uncertainties.
# What was measured:
# [1] = refractive index (Na D-line) (dimensionless); details: 293.15 K; 101.33 kPa; Liquid; Standard Abbe refractometry
# [2] = 293.15 K; 101.33 kPa; Liquid; Vibrating tube method
refractive index [1],mass density [2] [kg/m3],Structure (SMILES)
1.3328 ± 0.0007,998.4 ± 1,O [water]
1.3955 ± 0.0008,802 ± 1,CC(C)CO [2-methyl-1-propanol]
1.413 ± 0.0008,810.2 ± 1.1,CC(C)CCO [3-methylbutan-1-ol]
1.3616 ± 0.0012,790 ± 1,CCO [ethanol]
